Laboratory results reported in ChEMBL document CHEMBL1201862, “PubChem BioAssay data set” (2004).
Values belong to the compound of their own block, whether it stands above or below them. Active and inactive are the calls of the source.

What was measured:
[1] = test system: HEK293; experiment: HEK cell cytotoxicity by LDH release, dose response, cytotoxicity control for IDE activator project, fluorescence, HEK cells (AID 588440); type: functional, cell-based; conditions: Homo sapiens;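 further: cytotoxicity by LDH release measuring loss of membrane integrity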
[2] = target: T1, Insulin-degrading enzyme (Homo sapiens, UniProt P14735); experiment: activators of endogenous IDE in HEK cells, dose response, cell-based, fluorescence polarization (AID 588439); type: functional
T1 sequence (P14735 whole entry): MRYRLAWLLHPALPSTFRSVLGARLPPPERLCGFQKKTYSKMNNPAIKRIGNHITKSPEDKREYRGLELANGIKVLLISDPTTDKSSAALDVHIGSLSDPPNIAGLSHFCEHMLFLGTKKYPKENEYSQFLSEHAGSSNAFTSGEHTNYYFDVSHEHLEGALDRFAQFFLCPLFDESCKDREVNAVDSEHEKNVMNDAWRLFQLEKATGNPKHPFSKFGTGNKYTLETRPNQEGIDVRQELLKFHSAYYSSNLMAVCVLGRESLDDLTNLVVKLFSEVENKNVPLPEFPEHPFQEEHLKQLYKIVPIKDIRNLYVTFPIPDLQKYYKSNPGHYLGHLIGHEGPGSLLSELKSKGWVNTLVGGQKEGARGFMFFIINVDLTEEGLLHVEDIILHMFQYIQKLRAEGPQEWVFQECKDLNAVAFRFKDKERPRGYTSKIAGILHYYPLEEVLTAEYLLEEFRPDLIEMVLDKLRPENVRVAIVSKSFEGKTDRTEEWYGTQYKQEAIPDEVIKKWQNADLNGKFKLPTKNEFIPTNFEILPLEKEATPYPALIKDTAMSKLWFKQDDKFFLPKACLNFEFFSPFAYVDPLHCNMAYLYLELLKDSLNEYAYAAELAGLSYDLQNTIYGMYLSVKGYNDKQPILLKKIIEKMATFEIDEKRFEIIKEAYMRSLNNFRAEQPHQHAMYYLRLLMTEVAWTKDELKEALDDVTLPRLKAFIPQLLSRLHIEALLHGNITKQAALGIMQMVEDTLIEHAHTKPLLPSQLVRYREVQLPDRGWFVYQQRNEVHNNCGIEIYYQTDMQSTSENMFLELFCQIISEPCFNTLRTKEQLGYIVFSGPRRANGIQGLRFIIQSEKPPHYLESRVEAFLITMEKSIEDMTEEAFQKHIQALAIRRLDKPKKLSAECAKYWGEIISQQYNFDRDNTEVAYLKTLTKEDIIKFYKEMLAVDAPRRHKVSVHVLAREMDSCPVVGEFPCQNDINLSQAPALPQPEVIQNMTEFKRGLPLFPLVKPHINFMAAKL

[3] = target: T1, Insulin-degrading enzyme; experiment: activators of recombinant IDE enzyme, dose response, counter-screen for IDE activator project, biochemical, fluorescence polarization (AID 588681)
[4] = test system: HEK293; experiment: optical interference in Abeta FP readout, dose response, artefact control for IDE activator project, biochemical, fluorescence polarization (AID 588442); type: functional, cell-based; conditions: Homo sapiens
[5] = test system: HEK293; experiment: NOD1 signaling inhibitors, primary screen, cell-based, luminescence, uHTS (AID 1578); type: functional; conditions: Homo sapiens
[6] = target: T2, Probable nicotinate-nucleotide adenylyltransferase (Staphylococcus aureus (strain N315), UniProt P65502); type: functional, Staphylococcus aureus subsp. aureus N315; conditions: read-out: IC50_Mean;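 on IC50 Mean: confirmatory dose-response retesting of NadD inhibitor hits first found in an ultra-high-throughput screen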
[7] = target: Nucleotide-binding oligomerization domain-containing protein 2 (Homo sapiens, UniProt Q9HC29); experiment: NOD2 signaling inhibitors, cell-based, luminescence, uHTS, HEK293 (AID 1566); type: functional
Sequence of Nucleotide-binding oligomerization domain-containing protein 2 (Q9HC29 whole entry, the tested form may be a part): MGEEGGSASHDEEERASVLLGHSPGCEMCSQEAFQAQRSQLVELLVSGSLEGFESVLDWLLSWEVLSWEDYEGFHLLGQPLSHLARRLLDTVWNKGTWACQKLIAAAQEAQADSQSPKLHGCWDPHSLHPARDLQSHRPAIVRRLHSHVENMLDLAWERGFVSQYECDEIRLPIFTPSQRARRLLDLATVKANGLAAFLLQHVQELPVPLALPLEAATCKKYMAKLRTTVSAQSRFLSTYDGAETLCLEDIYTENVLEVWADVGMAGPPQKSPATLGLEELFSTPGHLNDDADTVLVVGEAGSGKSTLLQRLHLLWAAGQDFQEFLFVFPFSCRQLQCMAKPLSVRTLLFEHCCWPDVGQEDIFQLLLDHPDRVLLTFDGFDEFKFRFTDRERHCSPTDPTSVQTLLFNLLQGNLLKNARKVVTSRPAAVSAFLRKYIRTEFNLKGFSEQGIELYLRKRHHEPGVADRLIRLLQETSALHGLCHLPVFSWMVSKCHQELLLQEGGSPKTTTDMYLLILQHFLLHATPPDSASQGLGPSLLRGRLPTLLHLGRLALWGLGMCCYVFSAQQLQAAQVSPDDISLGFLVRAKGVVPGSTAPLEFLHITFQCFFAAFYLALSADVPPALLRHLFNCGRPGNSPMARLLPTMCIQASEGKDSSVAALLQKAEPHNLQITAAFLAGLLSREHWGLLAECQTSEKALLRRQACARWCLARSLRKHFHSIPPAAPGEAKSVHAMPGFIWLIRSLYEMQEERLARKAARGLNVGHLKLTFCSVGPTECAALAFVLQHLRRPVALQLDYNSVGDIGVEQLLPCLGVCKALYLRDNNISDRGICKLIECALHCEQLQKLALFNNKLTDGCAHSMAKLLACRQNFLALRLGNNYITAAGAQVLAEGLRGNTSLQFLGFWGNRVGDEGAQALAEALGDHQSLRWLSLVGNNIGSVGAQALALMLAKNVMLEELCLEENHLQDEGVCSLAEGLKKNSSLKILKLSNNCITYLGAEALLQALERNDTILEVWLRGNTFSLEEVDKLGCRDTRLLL

[8] = test system: HEK293; experiment: cells; type: functional, cell-based; conditions: Homo sapiens
[9] = test system: HEK293; experiment: NOD2 signaling inhibitors in MDP-stimulated cells, cell-based, uHTS, luminescence (AID 2001); type: functional; conditions: Homo sapiens
[10] = test system: HEK293; experiment: cells; type: functional, cell-based; conditions: Homo sapiens; remark: listed apart in the source
[11] = test system: HEK293; experiment: cells; type: functional, cell-based; conditions: Homo sapiens; remark: listed apart in the source
[12] = target: T2, Probable nicotinate-nucleotide adenylyltransferase; type: functional, Staphylococcus aureus subsp. aureus N315
[13] = target: T3, Sentrin-specific protease 8 (Homo sapiens, UniProt Q96LD8); type: functional
T3 sequence (Q96LD8 whole entry): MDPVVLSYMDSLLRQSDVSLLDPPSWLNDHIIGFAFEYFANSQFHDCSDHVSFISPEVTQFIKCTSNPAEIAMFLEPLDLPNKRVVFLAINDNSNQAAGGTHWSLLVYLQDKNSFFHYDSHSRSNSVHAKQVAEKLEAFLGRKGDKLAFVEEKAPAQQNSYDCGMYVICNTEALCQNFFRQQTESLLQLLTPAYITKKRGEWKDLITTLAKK

[14] = target: T3, Sentrin-specific protease 8; type: functional; remark: listed apart in the source
[15] = target: T3, Sentrin-specific protease 8; experiment: SENP8 protease inhibitors, SAR follow-up, biochemical, luminescence (AID 504501); type: functional
[16] = target: T4, Caspase-3 (Homo sapiens, UniProt P42574); experiment: SAR Analysis of small molecule inhibitors of Sentrin-specific proteases (SENPs) using a Caspase-3 Selectivity assay. [Related pubchem assays (depositor defined):AID2540, AID2599, AID434973, AID489001]; type: functional
T4 sequence (P42574 whole entry): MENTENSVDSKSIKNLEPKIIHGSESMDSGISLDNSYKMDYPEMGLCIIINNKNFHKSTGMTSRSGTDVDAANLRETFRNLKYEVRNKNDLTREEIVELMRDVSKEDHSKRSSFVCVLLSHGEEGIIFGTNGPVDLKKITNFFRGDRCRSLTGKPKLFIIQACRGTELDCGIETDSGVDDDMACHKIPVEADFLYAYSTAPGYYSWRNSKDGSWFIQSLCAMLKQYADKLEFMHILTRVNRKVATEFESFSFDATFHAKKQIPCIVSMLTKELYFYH

[17] = target: T5, Sentrin-specific protease 7 (Homo sapiens, UniProt Q9BQF6); experiment: SENP7 protease inhibitors, SAR follow-up, biochemical, luminescence (AID 504497); type: functional
T5 sequence (Q9BQF6 whole entry): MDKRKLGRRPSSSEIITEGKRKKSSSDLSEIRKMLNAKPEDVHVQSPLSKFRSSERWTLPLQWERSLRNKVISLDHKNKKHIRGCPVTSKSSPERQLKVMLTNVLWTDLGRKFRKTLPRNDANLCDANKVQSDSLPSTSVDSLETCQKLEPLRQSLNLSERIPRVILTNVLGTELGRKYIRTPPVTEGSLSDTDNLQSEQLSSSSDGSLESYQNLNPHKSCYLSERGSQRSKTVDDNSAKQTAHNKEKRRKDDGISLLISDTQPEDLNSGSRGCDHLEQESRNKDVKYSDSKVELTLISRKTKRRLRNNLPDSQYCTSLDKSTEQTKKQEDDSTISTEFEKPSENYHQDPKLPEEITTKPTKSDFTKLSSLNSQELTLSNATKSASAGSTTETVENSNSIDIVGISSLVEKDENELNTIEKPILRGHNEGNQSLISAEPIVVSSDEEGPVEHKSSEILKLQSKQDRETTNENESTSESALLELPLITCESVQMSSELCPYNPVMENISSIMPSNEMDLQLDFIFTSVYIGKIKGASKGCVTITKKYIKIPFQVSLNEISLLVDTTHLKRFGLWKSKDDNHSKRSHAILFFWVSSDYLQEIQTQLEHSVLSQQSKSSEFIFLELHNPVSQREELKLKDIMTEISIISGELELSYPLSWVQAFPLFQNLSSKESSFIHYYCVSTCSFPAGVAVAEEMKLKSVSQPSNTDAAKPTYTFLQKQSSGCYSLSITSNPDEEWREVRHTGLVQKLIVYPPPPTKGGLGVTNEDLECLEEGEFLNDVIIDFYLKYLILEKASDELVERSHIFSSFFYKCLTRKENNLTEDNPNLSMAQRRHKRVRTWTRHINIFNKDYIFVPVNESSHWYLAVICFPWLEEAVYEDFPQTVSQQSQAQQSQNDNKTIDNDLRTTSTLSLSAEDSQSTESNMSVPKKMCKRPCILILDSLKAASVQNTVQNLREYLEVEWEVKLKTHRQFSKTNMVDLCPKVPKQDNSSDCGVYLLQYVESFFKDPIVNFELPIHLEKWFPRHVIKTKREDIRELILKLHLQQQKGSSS

[18] = target: T6, Sentrin-specific protease 6 (Homo sapiens, UniProt Q9GZR1); experiment: SAR Analysis of small molecule inhibitors of Sentrin-specific protease 6 (SENP6) using a Luminescent assay. [Related pubchem assays (depositor defined):AID2582, AID2599]; type: functional
T6 sequence (Q9GZR1 whole entry): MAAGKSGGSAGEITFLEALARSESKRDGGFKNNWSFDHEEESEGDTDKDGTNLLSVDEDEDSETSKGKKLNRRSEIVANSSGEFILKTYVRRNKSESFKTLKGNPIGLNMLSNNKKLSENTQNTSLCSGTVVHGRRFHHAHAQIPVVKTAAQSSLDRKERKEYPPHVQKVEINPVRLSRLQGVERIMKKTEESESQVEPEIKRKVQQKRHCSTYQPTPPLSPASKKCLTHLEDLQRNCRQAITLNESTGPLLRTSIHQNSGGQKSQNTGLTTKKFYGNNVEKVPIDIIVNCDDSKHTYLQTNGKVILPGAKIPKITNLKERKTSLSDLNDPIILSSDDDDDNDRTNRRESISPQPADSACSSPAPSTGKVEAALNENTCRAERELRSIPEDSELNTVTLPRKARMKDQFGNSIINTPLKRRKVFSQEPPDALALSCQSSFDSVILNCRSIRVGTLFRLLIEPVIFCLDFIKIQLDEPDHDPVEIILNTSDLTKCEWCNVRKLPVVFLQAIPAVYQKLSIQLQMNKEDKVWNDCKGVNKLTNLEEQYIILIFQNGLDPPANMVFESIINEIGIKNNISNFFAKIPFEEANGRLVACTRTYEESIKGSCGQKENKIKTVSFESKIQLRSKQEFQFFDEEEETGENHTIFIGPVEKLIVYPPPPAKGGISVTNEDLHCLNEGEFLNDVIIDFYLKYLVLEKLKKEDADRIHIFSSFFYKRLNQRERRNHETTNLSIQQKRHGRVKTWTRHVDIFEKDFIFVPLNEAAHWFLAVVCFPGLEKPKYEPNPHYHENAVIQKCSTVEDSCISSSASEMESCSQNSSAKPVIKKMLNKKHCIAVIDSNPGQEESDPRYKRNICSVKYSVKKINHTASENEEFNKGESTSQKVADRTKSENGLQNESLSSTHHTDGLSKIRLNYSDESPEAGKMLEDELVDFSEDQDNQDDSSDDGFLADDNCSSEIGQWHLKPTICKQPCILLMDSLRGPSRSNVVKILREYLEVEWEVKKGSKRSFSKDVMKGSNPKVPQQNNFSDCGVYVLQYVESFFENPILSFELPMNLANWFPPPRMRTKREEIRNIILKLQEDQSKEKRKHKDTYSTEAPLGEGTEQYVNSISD

[19] = target: Hepatocyte nuclear factor 4-alpha (Homo sapiens, UniProt P41235); type: functional, cell-based;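 further: biochemical luminescence-based dose-response counterscreen measuring inhibition of HNF4 dimerization, run alongside a screen for blockers of ABHD5–perilipin-5 interaction; split luciferase complementation of HNF4 fusion proteins in cell lysate measuring dimerization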
Sequence of Hepatocyte nuclear factor 4-alpha (P41235 whole entry, the tested form may be a part): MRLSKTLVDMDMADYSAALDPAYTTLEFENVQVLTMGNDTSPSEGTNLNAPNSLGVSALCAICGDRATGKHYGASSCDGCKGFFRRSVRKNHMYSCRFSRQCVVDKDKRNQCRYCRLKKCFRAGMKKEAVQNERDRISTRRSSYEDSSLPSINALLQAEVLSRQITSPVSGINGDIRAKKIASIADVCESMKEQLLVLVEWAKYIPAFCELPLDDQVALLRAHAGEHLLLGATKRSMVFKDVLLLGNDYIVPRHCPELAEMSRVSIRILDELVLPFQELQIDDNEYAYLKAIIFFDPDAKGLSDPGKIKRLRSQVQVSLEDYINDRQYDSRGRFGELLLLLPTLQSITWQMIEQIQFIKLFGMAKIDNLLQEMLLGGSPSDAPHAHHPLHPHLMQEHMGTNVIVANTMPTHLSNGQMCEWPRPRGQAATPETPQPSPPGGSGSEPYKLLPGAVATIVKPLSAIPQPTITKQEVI

SMILES: O=C(c1cnn(C(=O)c2ccco2)c1)c1cc(F)ccc1O
- IC50 [1]: > 89.1 µM (inactive)
- EC50 [2]: > 54.7 µM (inactive)
- EC50 [3]: > 54.7 µM (inactive)
- EC50 [4]: > 54.7 µM (inactive)

SMILES: CC(OC(=O)c1ccc(Cl)nc1)C(=O)NC1(C#N)CCCCC1 (stereo unspecified)
- IC50 [1]: > 89.3 µM (inactive)
- EC50 [2]: > 54.7 µM (inactive)
- EC50 [3]: > 54.7 µM (inactive)
- EC50 [4]: > 54.7 µM (inactive)

SMILES: Cc1ccc(NS(=O)(=O)c2cc(NC(=O)c3ccc4c(c3)NC(=O)CS4)ccc2Cl)c(C)c1
- EC50 [5]: 6.38 µM (active)
- IC50 [6]: 48.8 µM (active)
- EC50 [7]: 14.3 µM (active)
- IC50 [8]: 6.3 µM (active)
- IC50 [9]: 7.17 µM (inactive)
- IC50 [10]: 11.5 µM (active)
- IC50 [11]: > 20 µM (inactive)
- IC50 [12]: 19.5 µM (active)

SMILES: COc1ccccc1NC(=O)c1cn(C)c(=O)c2cc(OC)c(OC)cc12
- IC50 [13]: 48.1 µM (active)
- IC50 [14]: 10.2 µM (active)

SMILES: C(=C\c1nc(-c2ccc(N3CCOCC3)cc2)no1)/c1ccccc1
- IC50 [15]: > 99 µM (inactive)
- IC50 [16]: > 99 µM (inactive)
- IC50 [17]: > 99 µM (inactive)
- IC50 [18]: > 99 µM (inactive)

Second part, led by results:

- IC50 [16]: 0.48 µM (active)
- IC50 [17]: 0.75 µM (active)
- IC50 [18]: 0.66 µM (active)
SMILES: Cc1ccsc1C(=O)Nc1nc2ccc(Cl)cc2s1
- IC50 [15]: 0.62 µM (active)

- IC50 [16]: > 99 µM (inactive)
- IC50 [17]: 63 µM (active)
- IC50 [18]: 32.4 µM (active)
SMILES: COc1ccc(C2C(C#N)=C(N)Oc3c2c(C)nn3-c2ccccc2)cc1 (stereo unspecified)
- IC50 [15]: > 99 µM (inactive)

- IC50 [19]: 6.14 µM (active)
SMILES: O=C1CC(c2ccc(Cl)cc2)Oc2ccc(Cl)cc21 (stereo unspecified)
